Laboratory results taken from publication PMC8558867, “Development of BromoTag: A “Bump-and-Hole”–PROTAC System to Induce Potent, Rapid, and Selective Degradation of Tagged Target Proteins” (Journal of Medicinal Chemistry, 2021).

Legend:
Assay type in all cases: cell-based, human
HEK293 cells = assay: CellTiter-Glo 2.0 cell viability assay, HEK293; conditions: HEK293, up to 1–10 μM
Experimental: All cell lines were treated with compounds in duplicate (triplicate for DMSO controls) at a 1× concentration in 0.1% DMSO. The compounds were serially diluted to produce a 7-point, 10-fold titration. The cells were treated with 50:100 μL of compound for a final concentration of 10 μM:10 pM in 0.1% DMSO. At the point of spectrometric analysis, cells were treated with 100 μL of Promega CellTiter-Glo 2.0 Cell Viability Assay reagent. The plates were subjected to an orbital shaker for 2 min to encourage lysis and left for a further 5 min to reach peak luminescence. Luminescence was then recorded on a BMG Labtech PHERAstar luminescence plate reader with recommended settings. Data extracted from this analysis was analyzed with GraphPad Prism (v. 8.2.0, GraphPad) and normalized to the DMSO vehicle control. The EC50 values were derived from these plots.

BromoTag-Brd2 = assay: Recovery (washout) assay
Experimental: This was performed in the genotype-verified heterozygous BromoTag-Brd2 HEK293 cell line. Heterozygous BromoTag-Brd2 HEK293 cells were plated at a density of 5 × 10^5 cells per well of a six-well plate a day before initiating the recovery assay. […] During treatment, the cells were kept at 37 °C, 5% CO2, and 95% humidity.
All cells were harvested on ice with RIPA lysis and extraction buffer (Thermo Fisher Scientific, 89901) supplemented with protease inhibitor cocktail (Merck, 11697498001) and Benzonase Nuclease (Sigma, E1014) before being stored at −20 °C prior to use. Total protein quantity was determined using the BCA protein assay (#23225, Pierce, Rockford, Illinois). The protein concentration was determined using the BCA assay (Thermo Fisher Scientific, 23225). The samples were then prepared and loaded onto NuPAGE 4–12% bis–tris Midi gels (Thermo Fisher Scientific, WG1403A), followed by the transfer of proteins onto nitrocellulose membranes (EMD Millipore). The membranes were blocked for 1 h prior to incubation with the primary antibodies using 5% Milk TBST. […] All western blots were analyzed for band intensities using Image Lab from Bio-Rad (LI-COR, Biosciences). The data extracted from these blots were then plotted and analyzed using Prism (v. 8.2.0, GraphPad).

[1] = test system: proteome of heterozygous BromoTag-Brd2 HEK293 cells; assay: Multiplexed TMT labeling mass spectrometry proteomics; conditions: 1 μM, 2 h
Experimental: To do this, we subjected our heterozygous BromoTag-Brd2 HEK293 cell line to a 1 μM treatment of 46, its non-degrading control 52, or vehicle (DMSO) for 2 h prior to harvest. The harvested lysate was then subjected to multiplexed tandem mass tag (TMT) labeling mass spectrometry to enable quantitative and unbiased analysis of protein levels in each condition.
CRISPR-modified BromoTag-Brd2 HEK293 cells (5 × 10^6) were seeded on a […] 24 h before treatment. The cells were treated with either DMSO, 1 μM AGB1, or 1 μM cis-AGB1. After 2 h of treatment, the cells were washed twice with PBS. The cells were lysed in 150 μL of 100 mM TEAB and 5% (w/v) sodium dodecyl sulfate. The lysate was sonicated for 10 s and then centrifuged at 15,000g for 5 min with the supernatant collected post-centrifugation. The samples were then quantified using a micro-BCA protein assay kit (Thermo Fisher Scientific); 300 μg of each sample was then reduced, alkylated, and then digested using the Strap mini protocol (protifi) as described by the manufacturer (protifi) with some modification. The samples were double-digested with trypsin (1:40) first overnight and then for another 6 h with the same ratio (1:40) in 50 mM TEAB buffer. The peptides were quantified using a quantitative fluorometric peptide assay (Thermo Fisher Scientific). […]

## CC[C@@H](C(=O)OCCOCCOCCOCC(=O)N[C@H](C(=O)N1C[C@H](O)C[C@H]1C(=O)NCc1ccc(-c2scnc2C)cc1)C(C)(C)C)[C@@H]1N=C(c2ccc(Cl)cc2)c2c(sc(C)c2C)-n2c(C)nnc21 [AGB1 (46), (S)-13-((2S,4R)-4-Hydroxy-2-((4-(4-methylthiazol-5-yl)benzyl)carbamoyl)pyrrolidine-1-carbonyl)-14,14-dimethyl-11-oxo-3,6,9-trioxa-12-azapentadecyl (R)-2-((S)-4-(4-chlorophenyl)-2,3,9-trimethyl-6H-thieno[3,2-f][1,2,4]triazolo[4,3-a][1,4]diazepin-6-yl)butanoate]
HEK293 cells
  cytotoxicity: lack of cytotoxicity
BromoTag-Brd2; 200 nM for 3 h, then washout
  time after washout at which BromoTag-Brd2 protein levels recover: 24 h
BromoTag-Brd2; 200 nM, no washout
  on-target degradation without washout: complete and durable on-target degradation for up to 72 h
[1]
  proteins significantly degraded among the 6621 proteins quantified: only Brd2 was shown to be significantly degraded
